# Test results reported in PubChem BioAssay (NCI).
#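 The compound was tested at five concentrations on cells cultured in 96-well plates, with a 48-hour exposure period. TGI marks complete inhibition of growth.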
# Columns and labels:
# Test in all cases: NCI tumour cell line growth inhibition, 48 h
# 786-0 renal = system: 786-0 renal
# M14 melanoma = system: M14 melanoma
# EKVX NSCLC = system: EKVX NSCLC
# SW-620 colon = system: SW-620 colon
# NCI-H23 lung = system: NCI-H23 lung
# TK-10 renal = system: TK-10 renal
# KM12 colon = system: KM12 colon
# NCI-H522 lung = system: NCI-H522 lung
# SF-539 CNS = system: SF-539 CNS
# HL-60(TB) leukemia = system: HL-60(TB) leukemia
# CAKI-1 renal = system: CAKI-1 renal
# UACC-62 melanoma = system: UACC-62 melanoma
# KM20L2 colon = system: KM20L2 colon
# K-562 leukemia = system: K-562 leukemia
# HT29 colon = system: HT29 colon
# LOX IMVI melanoma = system: LOX IMVI melanoma
# HCC-2998 colon = system: HCC-2998 colon
# SK-MEL-5 melanoma = system: SK-MEL-5 melanoma
# RXF 393 renal = system: RXF 393 renal
# MOLT-4 leukemia = system: MOLT-4 leukemia
# HCT-116 colon = system: HCT-116 colon
# IGROV1 ovarian = system: IGROV1 ovarian
# SK-OV-3 ovarian = system: SK-OV-3 ovarian
# DLD-1 colon = system: DLD-1 colon
# SK-MEL-28 melanoma = system: SK-MEL-28 melanoma
# SNB-78 CNS = system: SNB-78 CNS
# A498 renal = system: A498 renal
# ACHN renal = system: ACHN renal
# NCI-H460 lung = system: NCI-H460 lung
# OVCAR-4 ovarian = system: OVCAR-4 ovarian
# HOP-62 NSCLC = system: HOP-62 NSCLC
# SF-268 CNS = system: SF-268 CNS
# COLO 205 colon = system: COLO 205 colon
# CCRF-CEM leukemia = system: CCRF-CEM leukemia
# UACC-257 melanoma = system: UACC-257 melanoma
# LXFL 529 NSCLC = system: LXFL 529 NSCLC
# DMS 273 small cell lung = system: DMS 273 small cell lung
# SNB-19 CNS = system: SNB-19 CNS
# SK-MEL-2 melanoma = system: SK-MEL-2 melanoma
# M19-MEL melanoma = system: M19-MEL melanoma
# A549 NSCLC = system: A549 NSCLC
# UO-31 renal = system: UO-31 renal
# SNB-75 CNS = system: SNB-75 CNS
# SF-295 CNS = system: SF-295 CNS
# SN12C renal = system: SN12C renal
# DMS 114 small cell lung = system: DMS 114 small cell lung
# NCI-H226 lung = system: NCI-H226 lung
# HCT-15 colon = system: HCT-15 colon
# MALME-3M melanoma = system: MALME-3M melanoma
# RXF-631 renal = system: RXF-631 renal
# OVCAR-5 ovarian = system: OVCAR-5 ovarian
# U251 CNS = system: U251 CNS
# RPMI-8226 leukemia = system: RPMI-8226 leukemia
# HOP-92 NSCLC = system: HOP-92 NSCLC
# XF 498 CNS = system: XF 498 CNS
# SR leukemia = system: SR leukemia
# HOP-18 NSCLC = system: HOP-18 NSCLC
# OVCAR-3 ovarian = system: OVCAR-3 ovarian
# OVCAR-8 ovarian = system: OVCAR-8 ovarian
compound,measurement,setting,value
CCOC(=O)C(=O)Nc1ccc(C)c(C)c1,TGI,786-0 renal,> 100 µM
same,TGI,M14 melanoma,> 100 µM
same,TGI,EKVX NSCLC,> 100 µM
same,TGI,SW-620 colon,20 µM
same,TGI,NCI-H23 lung,> 100 µM
same,TGI,TK-10 renal,> 100 µM
same,TGI,KM12 colon,> 93.8 µM
same,TGI,NCI-H522 lung,> 100 µM
same,TGI,SF-539 CNS,> 100 µM
same,TGI,HL-60(TB) leukemia,> 100 µM
same,TGI,CAKI-1 renal,> 100 µM
same,TGI,UACC-62 melanoma,> 100 µM
same,TGI,KM20L2 colon,> 100 µM
same,TGI,K-562 leukemia,> 100 µM
same,TGI,HT29 colon,> 100 µM
same,TGI,LOX IMVI melanoma,> 100 µM
same,TGI,HCC-2998 colon,> 100 µM
same,TGI,SK-MEL-5 melanoma,> 100 µM
same,TGI,RXF 393 renal,> 100 µM
same,TGI,MOLT-4 leukemia,> 100 µM
same,TGI,HCT-116 colon,> 100 µM
same,TGI,IGROV1 ovarian,> 100 µM
same,TGI,SK-OV-3 ovarian,> 100 µM
same,TGI,DLD-1 colon,> 100 µM
same,TGI,SK-MEL-28 melanoma,> 100 µM
same,TGI,SNB-78 CNS,> 100 µM
same,TGI,A498 renal,> 100 µM
same,TGI,ACHN renal,> 100 µM
same,TGI,NCI-H460 lung,> 100 µM
same,TGI,OVCAR-4 ovarian,> 100 µM
same,TGI,HOP-62 NSCLC,> 100 µM
same,TGI,SF-268 CNS,> 100 µM
same,TGI,COLO 205 colon,32.2 µM
same,TGI,CCRF-CEM leukemia,> 100 µM
same,TGI,UACC-257 melanoma,> 100 µM
same,TGI,LXFL 529 NSCLC,> 100 µM
same,TGI,DMS 273 small cell lung,> 100 µM
same,TGI,SNB-19 CNS,> 100 µM
same,TGI,SK-MEL-2 melanoma,> 100 µM
same,TGI,M19-MEL melanoma,> 100 µM
same,TGI,A549 NSCLC,> 100 µM
same,TGI,UO-31 renal,> 100 µM
same,TGI,SNB-75 CNS,> 100 µM
same,TGI,SF-295 CNS,> 100 µM
same,TGI,SN12C renal,> 100 µM
same,TGI,DMS 114 small cell lung,> 56.5 µM
same,TGI,NCI-H226 lung,> 100 µM
same,TGI,HCT-15 colon,> 55.4 µM
same,TGI,MALME-3M melanoma,> 100 µM
same,TGI,RXF-631 renal,> 100 µM
same,TGI,OVCAR-5 ovarian,> 100 µM
same,TGI,U251 CNS,> 100 µM
same,TGI,RPMI-8226 leukemia,> 100 µM
O=C(NN1C(=O)CS(=O)(=O)C1c1cccc(F)c1)c1ccncc1 (centres undefined),TGI,786-0 renal,> 100 µM
same,TGI,M14 melanoma,> 100 µM
same,TGI,SW-620 colon,> 100 µM
same,TGI,TK-10 renal,> 100 µM
same,TGI,KM12 colon,> 100 µM
same,TGI,NCI-H522 lung,> 100 µM
same,TGI,HL-60(TB) leukemia,> 100 µM
same,TGI,HOP-92 NSCLC,> 100 µM
same,TGI,CAKI-1 renal,> 100 µM
same,TGI,HT29 colon,> 100 µM
same,TGI,LOX IMVI melanoma,> 100 µM
same,TGI,HCC-2998 colon,> 100 µM
same,TGI,SK-MEL-5 melanoma,> 100 µM
same,TGI,XF 498 CNS,> 100 µM
same,TGI,RXF 393 renal,> 100 µM
same,TGI,MOLT-4 leukemia,> 100 µM
same,TGI,HCT-116 colon,> 100 µM
same,TGI,SK-OV-3 ovarian,> 100 µM
same,TGI,DLD-1 colon,> 100 µM
same,TGI,SK-MEL-28 melanoma,> 100 µM
same,TGI,A498 renal,> 100 µM
same,TGI,ACHN renal,> 100 µM
same,TGI,NCI-H460 lung,> 100 µM
same,TGI,OVCAR-4 ovarian,> 100 µM
same,TGI,HOP-62 NSCLC,> 100 µM
same,TGI,SF-268 CNS,> 100 µM
same,TGI,COLO 205 colon,> 100 µM
same,TGI,SR leukemia,> 100 µM
same,TGI,UACC-257 melanoma,> 100 µM
same,TGI,LXFL 529 NSCLC,> 100 µM
same,TGI,DMS 273 small cell lung,> 100 µM
same,TGI,SNB-19 CNS,> 100 µM
same,TGI,SK-MEL-2 melanoma,> 100 µM
same,TGI,A549 NSCLC,> 100 µM
same,TGI,SNB-75 CNS,> 100 µM
same,TGI,SF-295 CNS,> 100 µM
same,TGI,SN12C renal,> 100 µM
same,TGI,DMS 114 small cell lung,> 100 µM
same,TGI,NCI-H226 lung,> 100 µM
same,TGI,HCT-15 colon,> 100 µM
same,TGI,MALME-3M melanoma,> 100 µM
same,TGI,RXF-631 renal,> 100 µM
same,TGI,OVCAR-5 ovarian,> 100 µM
same,TGI,RPMI-8226 leukemia,> 100 µM
CC(CC[C@@H](C)C1CCC2[C@@H]3CC(O)C4CC(O)[C@@H](O)C[C@]4(C)C3CC[C@@]21C)C(C)(C)C (some centres undefined),TGI,786-0 renal,> 100 µM
same,TGI,M14 melanoma,> 100 µM
same,TGI,EKVX NSCLC,> 100 µM
same,TGI,HOP-18 NSCLC,> 100 µM
same,TGI,SW-620 colon,> 100 µM
same,TGI,NCI-H23 lung,> 100 µM
same,TGI,TK-10 renal,> 100 µM
same,TGI,KM12 colon,> 100 µM
same,TGI,SF-539 CNS,> 100 µM
same,TGI,HL-60(TB) leukemia,> 100 µM
same,TGI,HOP-92 NSCLC,> 100 µM
same,TGI,CAKI-1 renal,> 100 µM
same,TGI,UACC-62 melanoma,> 100 µM
same,TGI,KM20L2 colon,> 100 µM
same,TGI,K-562 leukemia,> 100 µM
same,TGI,HT29 colon,> 100 µM
same,TGI,LOX IMVI melanoma,> 100 µM
same,TGI,HCC-2998 colon,> 100 µM
same,TGI,SK-MEL-5 melanoma,> 100 µM
same,TGI,XF 498 CNS,> 100 µM
same,TGI,RXF 393 renal,> 100 µM
same,TGI,MOLT-4 leukemia,> 100 µM
same,TGI,HCT-116 colon,> 100 µM
same,TGI,IGROV1 ovarian,> 100 µM
same,TGI,SK-OV-3 ovarian,> 100 µM
same,TGI,DLD-1 colon,> 100 µM
same,TGI,SK-MEL-28 melanoma,> 100 µM
same,TGI,SNB-78 CNS,> 100 µM
same,TGI,A498 renal,> 100 µM
same,TGI,ACHN renal,> 100 µM
same,TGI,NCI-H460 lung,> 100 µM
same,TGI,OVCAR-4 ovarian,> 100 µM
same,TGI,HOP-62 NSCLC,> 100 µM
same,TGI,SF-268 CNS,> 100 µM
same,TGI,COLO 205 colon,> 100 µM
same,TGI,CCRF-CEM leukemia,> 100 µM
same,TGI,SR leukemia,> 100 µM
same,TGI,UACC-257 melanoma,> 100 µM
same,TGI,LXFL 529 NSCLC,> 100 µM
same,TGI,DMS 273 small cell lung,> 100 µM
same,TGI,SNB-19 CNS,> 100 µM
same,TGI,SK-MEL-2 melanoma,> 100 µM
same,TGI,M19-MEL melanoma,> 100 µM
same,TGI,A549 NSCLC,> 100 µM
same,TGI,UO-31 renal,> 100 µM
same,TGI,OVCAR-3 ovarian,> 100 µM
same,TGI,SNB-75 CNS,> 100 µM
same,TGI,SF-295 CNS,> 100 µM
same,TGI,SN12C renal,> 100 µM
same,TGI,DMS 114 small cell lung,> 100 µM
same,TGI,NCI-H226 lung,> 100 µM
same,TGI,OVCAR-8 ovarian,> 100 µM
same,TGI,HCT-15 colon,> 100 µM
same,TGI,MALME-3M melanoma,> 100 µM
same,TGI,OVCAR-5 ovarian,> 100 µM
same,TGI,U251 CNS,> 100 µM
same,TGI,RPMI-8226 leukemia,> 100 µM
